From patent US20070145618A1, “Methods of making microencapsulated delivery vehicles” (Kimberly-Clark Worldwide, Inc., priority 2005, published 2007)
Read-outs that look alike come from different tables or passages of the source.

Tests used:
[1] = particle size 149-355 micrometers; 35 wt % in mineral oil; added to 7.0 grams de-ionized water; compared with four other size ranges
Experimental: In this example, samples incorporating various size ranges of anhydrous calcium chloride suspended in mineral oil at 35 wt % were evaluated for their ability to generate heat upon introduction into water.
The five size ranges of anhydrous calcium chloride evaluated were: (1) less than 149 microns; (2) 149-355 microns; (3) 710-1190 microns; (4) 1190-2000 microns; and (5) 2000-4000 microns. The samples of anhydrous calcium chloride (Dow Chemical, Midland, Mich.) were dispersed in mineral oil (available as Drakeol 7 LT NF from Penreco, Dickinson, Tex.). The as received anhydrous calcium chloride were screened dry using a Gilson Sonic Sieve (Gilson Company, Inc. Columbus, Ohio) to create two sizes, a 1190-2000 micron size and a 2000-4000 micron size. These powders were then suspended at 35 wt % in mineral oil to form a slurry using a cowles mixing blade. To achieve the smaller size distributions, the anhydrous calcium chloride powder required further processing. […]
All five samples were then individually added to 7.0 grams de-ionized water and the resulting temperature rise was measured using a Barnant Scanning Thermocouple (available from Therm-X of California, Hayward, Calif.).

[2] = particle size less than 250 micrometers; 35 wt % in mineral oil; added to 7.0 grams de-ionized water; compared with three other size ranges
Experimental: In this example, samples incorporating various size ranges of anhydrous magnesium chloride suspended in mineral oil at 35 wt % were evaluated for their ability to generate heat upon introduction into water.
The four size ranges of anhydrous magnesium chloride evaluated were: (1) 1000-1500 microns; (2) 600-1000 microns; (3) 250-600 microns; and (4) less than 250 microns. To produce the samples of anhydrous magnesium chloride in mineral oil, the various size ranges of anhydrous magnesium chloride powder (Magnesium Interface Inc. (Vancouver, B.C., Canada) were suspended at 35 wt % in mineral oil (available as Drakeol 7 LT NF from Penreco, Dickinson, Tex.). To produce the samples having anhydrous magnesium chloride with size ranges of 1000-1500 microns, 600-1000 microns, and 250-600 microns, the as received anhydrous magnesium chloride powder was hand screened into the size ranges desired and the powders collected. These powders were suspended at 35 wt % in mineral oil using a cowles mixing blade. […]
All four samples were then added to 7.0 grams de-ionized water and the resulting temperature rise was measured using a J type Thermocouple (available from Omega Engineering, Inc., Stamford, Conn.).

| Compound | rate of heat release (heat generation rate) [1] | rate of heat release (heat generation rate) [2] |
| --- | --- | --- |
| [Ca+2].[Cl-].[Cl-] [anhydrous calcium chloride, calcium chloride] | highest rate | – |
| [Cl-].[Cl-].[Mg+2] [anhydrous magnesium chloride, magnesium chloride] | – | highest rate |
